# Reference: patent US20260139017A1, “COMPOSITIONS AND METHODS USING REELIN IN ALZHEIMER'S DISEASE” (The General Hospital Corporation, priority 2022, published 2026)
# Entries after “also recorded” stand apart in the source; their conditions may differ.
# Experiments:
# [1] = biological target: T1, APOER2 (Homo sapiens, UniProt Q14114); assay: ELISA cell-free binding of RELN variants to ApoEr2
# T1 construct: purchased OnGene (so in the source)
# T1 sequence (Q14114 33-963): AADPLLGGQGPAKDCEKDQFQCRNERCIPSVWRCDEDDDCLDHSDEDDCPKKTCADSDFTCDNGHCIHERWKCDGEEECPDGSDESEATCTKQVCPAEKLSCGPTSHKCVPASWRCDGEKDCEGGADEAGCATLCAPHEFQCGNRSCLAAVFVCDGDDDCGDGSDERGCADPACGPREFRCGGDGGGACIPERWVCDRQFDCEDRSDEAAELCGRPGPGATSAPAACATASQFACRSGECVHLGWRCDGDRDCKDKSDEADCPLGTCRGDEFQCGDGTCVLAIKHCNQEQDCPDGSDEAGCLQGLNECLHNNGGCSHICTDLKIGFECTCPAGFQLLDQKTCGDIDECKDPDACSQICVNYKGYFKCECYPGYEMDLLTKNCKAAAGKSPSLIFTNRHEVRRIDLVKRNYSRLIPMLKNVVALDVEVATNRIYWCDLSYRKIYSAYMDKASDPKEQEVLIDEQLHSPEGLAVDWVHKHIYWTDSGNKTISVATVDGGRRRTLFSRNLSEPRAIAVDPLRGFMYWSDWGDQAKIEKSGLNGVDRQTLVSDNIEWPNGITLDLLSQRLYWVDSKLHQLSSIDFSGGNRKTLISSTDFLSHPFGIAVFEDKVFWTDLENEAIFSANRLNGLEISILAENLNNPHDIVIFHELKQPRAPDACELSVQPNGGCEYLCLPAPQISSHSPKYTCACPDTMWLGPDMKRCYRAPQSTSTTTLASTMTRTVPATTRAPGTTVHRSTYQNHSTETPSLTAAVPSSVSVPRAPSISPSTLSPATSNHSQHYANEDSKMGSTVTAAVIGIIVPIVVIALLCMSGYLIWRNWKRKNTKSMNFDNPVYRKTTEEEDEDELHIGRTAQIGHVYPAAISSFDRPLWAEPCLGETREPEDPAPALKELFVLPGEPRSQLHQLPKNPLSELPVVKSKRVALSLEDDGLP
# Experimental: (§1) Enzyme-linked immunosorbent assay (ELISA) was used to quantify changes in binding of RELN variants (media-derived full-length or CTR-RELN) to either VLDLr or ApoEr2 following an optimized version of a previously published protocol (6). Briefly, ELISA strips (DY008, R&D Systems) were coated with one ng/μL (100 μL/well) of VLDLr (8444-VL, R&D) or ApoEr2 (TP320903, OnGene) receptors diluted in 25 mM Tris HCl, 140 mM NaCl, […], two mM CaCl2), pH 7.4 (TBS-C buffer). After 18 h at four ° C. incubation, plates were blocked one h with three % BSA (22070008-6, Bioworld), 0.05% Tween-20 (Sigma Aldrich) TBS-C buffer. We assessed binding via incubation with 100 μL/well of serial dilutions of recombinant RELN protein (Ser1221-Gln2666, 8546-MR-050, R&D) or RELN variants in TBS-C buffer for one hour at room temperature. For detection, we used goat anti-mouse RELN primary antibody (LS-C793521-100, LS-Bio, 1:2,000, 100 μL/well) as primary antibody for one h at R.T. and (1:10,000; 100 μL/well, donkey anti-goat IgG H&L, HRP, ab6885, Abcam) as secondary antibody for 30 min. at R.T. Between each of the previous steps, plates were washed four times with TBS-C buffer (200 μL/well). Plates were washed three times prior to initiating the colorimetric reaction (DY008, R&D Systems). Stop solution (50 μL/well, DY008, R&D Systems) was added upon five min. incubation and the absorbance of the samples was measured at 450 nm using the Synergy 2 microplate reader (BioTek Instruments). Processing and analysis of the data was done using Gen5 1.11 software and GraphPad Prism, respectively.
# [2] = biological target: T2, VLDLr (Homo sapiens, UniProt P98155); assay: ELISA cell-free binding of RELN variants to VLDLr
# T2 construct: purchased R&D 8444-VL
# Experimental: as §1
# [3] = biological target: T3, Aβ42 (Homo sapiens, UniProt P05067); assay: Thioflavin T (ThT) Aβ aggregation assay; assay type: biochemical; settings: Aβ42 55 μM, 10 μM peptide; vs Aβ alone
# T3 construct: SensoLyte ThT O-Amyloid (1-42) Aggregation kit
# Experimental: Therefore, the ThT assay can be used to quantify AB aggregation using previously developed methods (40).
# We incubated CTR-RELN with Aβ and monitored aggregation using a ThioflavinT fluorescence assay normalized to the maximum ThT emission of Aβ only. We also assayed Aβ in the presence of morin, a known inhibitor (41), as a […]. Long and short WT and H3447R RELN CTR peptides were included to better understand the potential role of the H3447R mutation in amyloid pathology (FIGS. 14 and 15. Negative controls included long and short RELN CTR peptides with neutrally charged AAs (histidines) in place of basic AAs in the alpha- and beta-GAG binding sites.
# A Thioflavin T (ThT) assay was also performed using synthetic Reelin peptides to assess the differential effects of these proteins on Aβ42 aggregation in vitro using Thioflavin T (SensoLyte ThT O-Amyloid (1-42) Aggregation kit, catalog no. ΔS-72214). Aβ42 was added to a final concentration of 55 μM in solutions of 10 μM of Reelin peptide variants in a transparent, no-binding 96-well plate. Samples were then mixed with 2 mM Thioflavin T dye and fluorescence was read at excitation wavelength/emission wavelength (Ex/Em)=440/484 nm at intermittent time intervals over 2 h. The plate was kept at 37° C. with 15 s shaking between reads. […] In general, it appears that the RELN Cterm domain is highly unstructured. […] If the mini-RELN includes the C-term domain only without a receptor binding domain then the protection will not involve signaling, but will still involve direct interactions with tau. If the mini-RELN includes the C-term domain and the receptor binding domain, it will have at least two protective mechanisms, namely RELN signaling and direct interactions with tau.
# [4] = Heparin HPLC, peak retention time in KCl elution; assay type: binding; settings: isocratic 1M KCl elution, long and short peptides
# Experimental: […] 50 μl of 0.3 μg/μL uncleaved or cleaved WT Reelin peptide was used at 0.3 ml/min in 0.15MKCl, 10 mM PBS. 0-13.5 min: 0.15M KCl to load sample, 13.5-14.5 min: ramp to 0.5M KCl, 14.5-24.5 min: 0.5-1M KCl gradient (ramp), 24.5-45 min: 1M KCl (isocratic elution), 45-55 min: 1M KCl at 0.6 ml/min (wash), 55.0-56.0 min: ramp to 0.15M KCl at 0.3 ml/min, 56.0-59.0 min: 0.15M KCl (reset column). Fluorescence Intensities were measured at an excitation wavelength of 260 nm and emission wavelength of 290 nm, based on fluorescence properties of aromatic amino acids. To assess fluorescence properties of peptides, 15 ul of ˜0.6 ug/mL of peptide was diluted in 500 μL of 0.15MKCl, 10 mM PBS, and peak excitation and emission of peptides was calculated from the 2D graphical data.
# The column chromatography method was adapted from previous research from the laboratory (2). Based on the column chromatography data, the initial protocol used a NaCl gradient from 0-1 M and a 5M salt wash to reset the HPLC column. However, the high salt gradient was corrosive to the HPLC machine parts. Therefore, KCl was considered because the […]. A lower molar concentration of a buffer with KCl could be used to disrupt heparin—Reelin CTR interactions compared to NaCl to help keep the HPLC pumps free of residual salts and potential corrosion. Since a lower concentration of salt was used, the amount of time needed at an […] hold of 1M KCl was extended until the peptide signal could not be detected before the column was equilibrated for the next sample.
# [5] = Surface plasmon resonance (SPR) binding of CTR-RELN peptides to heparin-coated chip; settings: SPR kinetic constants
# Experimental: Surface plasmon resonance assay (SPR) was used for performing binding kinetics using a Biacore 3000 Instrument (GE Healthcare) at 25° C. following previously published protocols (7 24) as fee-for-service by Precision Antibody (Maryland, USA). Biotin-labeled heparin (B9806, Sigma Aldrich) was covalently linked to streptavidin-coated chip and unoccupied sites were blocked with biocytin. Antigen was flowed over the chip using a range of single analyte concentrations prepared in DPBS buffer and using a flow rate of 30 μL/min. Binding of antigen to the ligand was monitored in real time to obtain on (ka) and off (kd) rates. The equilibrium constant (KD) was calculated from the observed ka and kd. Accuracy of the SPR analysis was determined via Chi square (χ2) analysis as described in the statistical analysis section. We included in the analyses the WT and H3447R peptides and peptides with the hypothetical H3447D change ([…])(SEQ ID NO:57) and the H3447K change ([…])(SEQ ID NO:58), also produced and purified by Innovagen (Sweden).
# Surface plasmon resonance assay (SPR) was used for performing binding kinetics using a Biacore 3000 Instrument (GE Healthcare) at 25° C. following previously published protocols 34 24 fee-for-service by Precision Antibody (Maryland, USA). Heparin was covalently linked to streptavidin coated chip at 13 response units (RU) concentration and unoccupied sites were blocked with biocytin. Antigen was flowed over the chip using a range of single analyte concentrations prepared in DPBS buffer and using a flow rate of 30 μL/min. Binding of antigen to the ligand was monitored in real time to obtain on (ka) and off (kd) rates. The equilibrium constant (KD) was calculated from the observed ka and kd. Accuracy of the SPR analysis was determined via Chi square (2) analysis as described in the statistical analysis section.
# [6] = biological target: T4, NRP1 (Homo sapiens, UniProt O14786); assay: Bio-layer interferometry (BLI) of CTR-RELN-NRP-1 interactions; assay type: binding
# T4 construct: purchased R&D 3870-N1-025
# T4 sequence (O14786 22-644 isoform O14786-2 limits assumed): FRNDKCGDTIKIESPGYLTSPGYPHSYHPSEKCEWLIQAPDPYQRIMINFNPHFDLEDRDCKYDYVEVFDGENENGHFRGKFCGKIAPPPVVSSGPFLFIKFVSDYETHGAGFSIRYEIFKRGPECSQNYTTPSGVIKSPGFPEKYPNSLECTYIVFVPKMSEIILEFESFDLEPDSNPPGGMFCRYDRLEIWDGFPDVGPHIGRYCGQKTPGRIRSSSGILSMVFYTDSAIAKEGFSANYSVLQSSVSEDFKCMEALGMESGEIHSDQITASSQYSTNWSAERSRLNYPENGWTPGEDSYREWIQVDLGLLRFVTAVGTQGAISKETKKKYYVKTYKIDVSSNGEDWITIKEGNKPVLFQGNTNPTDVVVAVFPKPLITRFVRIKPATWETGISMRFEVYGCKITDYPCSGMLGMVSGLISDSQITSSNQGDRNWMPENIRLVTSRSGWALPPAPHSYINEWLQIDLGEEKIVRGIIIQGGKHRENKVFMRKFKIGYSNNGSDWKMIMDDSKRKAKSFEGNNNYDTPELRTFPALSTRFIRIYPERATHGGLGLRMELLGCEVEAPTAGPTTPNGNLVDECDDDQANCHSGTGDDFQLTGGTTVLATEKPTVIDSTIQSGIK
# Experimental: (§2) Bio-layer interferometry (BLI) was additionally used to assess NRP1-protein kinetics at 30° C. and 1000 rpm agitation. 1 mg/mL NRP1 (R&D 3870-N1-025) was biotinylated at a 1:2 molar ratio, desalted, and immobilized on the SA biosensor tip (Pall ForteBio) surface. This was followed by 1) 180 seconds baseline buffer diluent, 2) loading of the ligand (NRP1), 3) 180 seconds baseline buffer diluent, 4) 240 seconds association (analyte), and 5) 300 seconds disassociation in assay buffer. Assay buffer: SD Buffer (pH7.4 PBS, 0.05% tween20, 0.01% BSA).
# The experimental data were fit with the 1:1 binding model and analyzed with global fitting using Octet Data Analysis software to calculate KD.
# as §2, with “was” for “was additionally”, “agitation using previously published methods.” for “agitation.”
# T3 sequence (P05067 672-713 limits assumed): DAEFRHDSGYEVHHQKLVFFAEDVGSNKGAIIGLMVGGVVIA
Substance,Aβ aggregation (ThT fluorescence) [3],peak retention time on heparin HPLC [4],"heparin affinity/interaction relative to WT, in words [5]",other results
"RELN WT: full-length murine recombinant RELN, wild type",–,–,–,binding to APOER2 [1]: did not differ; binding to VLDLr [2]: did not differ
RKQNYMMNFSRQHGLRDFYNRRRRSLRRYP [H3447D long],similarly decrease aggregation,significantly less interaction; also recorded: earlier peak retention time,reduced heparin interactions,–
RKQNYMMNFSRQHGLRKFYNRRRRSLRRYP [H3447K long],similarly decrease aggregation,increased later peak retention times,minimal effects,–
"Vascular endothelial growth factor [VEGF, reference compound]",–,–,–,"ka ([6]; immobilized biotinylated NRP1): 272000 M⁻¹ s⁻¹; kd ([6]; immobilized biotinylated NRP1): 0.0015 s⁻¹; Kd ([6]; immobilized biotinylated NRP1, 30° C., 1:1 model): 5.53 nM"
